Patent EP0090510A2, “O-carbamoyl salicylates and their preparation” (Council of Scientific and Industrial Research, priority 1983, dated 1983)

Legend:
Assay type in all cases: in vivo
Conditions in all cases: Dose : 200 mg/kg
[1] = Analgesic protection, writhing test; set-up: unit not given here
[2] = Anti-inflammatory, edema test
[3] = Anti-inflammatory, granuloma test

Compound	Analgesic protection Writhing [1]	Anti-inflammatory %Inhibition Raw edema [2] [%]	Anti-inflammatory %Inhibition Granuloma [3] [%]
CCCCCCCCCCCCCCCc1cccc(OC(=O)c2ccccc2OC(N)=O)c1 [compound 10]	45.00	12.10	33.55
Cc1cccc(OC(=O)c2ccccc2OC(N)=O)c1 [compound 8]	84.00	48.50	33.25
Cc1cc(OC(=O)c2ccccc2OC(N)=O)ccc1Cl [compound 9]	68.00	28.90	24.04
NC(=O)Oc1ccccc1C(=O)Oc1ccccc1Cl [compound 5]	70.00	35.00	35.06
O-Carbamoyl (3-pentadecylphenyl) salicylate [Sl. No. 10]	67.00	34.85	19.79
O-Carbamoyl phenylsalicylate [Sl. No. 4]	95.00	34.86	28.63
NC(=O)Oc1ccccc1C(=O)Oc1ccc(Cl)cc1 [compound 6]	83.00	37.88	41.45
O-Carbamoyl ethylsalicylate [Sl. No. 2]	69.78	76.23	46.32
NC(=O)Oc1ccccc1C(=O)Oc1ccc(Cl)cc1Cl [compound 7]	76.00	28.77	34.40
NC(=O)Oc1ccccc1C(=O)Oc1ccccc1 [compound 4]	72.00	93.19	57.65
